“Also recorded” adds a separate entry of the source. Read-outs that look alike come from different tables or passages of the source. Where a SMILES comes first, the peptide text is derived from it. Where no end group is shown, it is not given here. [ ]: non-standard residue; d: D form. sY = N[C@@H](Cc1ccc(OS(=O)(=O)O)cc1)C(=O)O; pGlu = O=C1CC[C@@H](C(=O)O)N1 Where only a bound is given, the exact number is not on record here.

Assay [1] has as its target T1, Cragi-CCKR1 (Magallana gigas, UniProt A0A345BJM8).
T1 sequence (A0A345BJM8 1-408): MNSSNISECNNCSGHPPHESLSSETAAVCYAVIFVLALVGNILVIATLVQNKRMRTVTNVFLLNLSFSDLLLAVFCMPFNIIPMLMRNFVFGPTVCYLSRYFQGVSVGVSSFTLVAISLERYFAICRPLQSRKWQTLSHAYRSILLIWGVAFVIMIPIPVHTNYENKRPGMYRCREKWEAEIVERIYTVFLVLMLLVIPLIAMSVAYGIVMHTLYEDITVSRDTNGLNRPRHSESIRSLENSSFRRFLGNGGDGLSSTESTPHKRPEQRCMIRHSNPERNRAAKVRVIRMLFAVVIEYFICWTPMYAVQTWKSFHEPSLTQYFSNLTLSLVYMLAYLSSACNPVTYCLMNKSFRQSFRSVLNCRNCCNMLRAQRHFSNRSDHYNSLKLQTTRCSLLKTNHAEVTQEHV
Put plainly: Calcium fluorescence (mobilization) assay, Cragi-CCKR1 in HEK293T cells. As to conditions: for EC50: HEK293T transiently transfected with Cragi-CCKR1, Fluo-4 calcium response, 37 °C, read-out: EC50 for receptor activation, Cragi-CCKR1. The class given is cell-based, Crassostrea gigas. The source says: (§1) The CDS of the Cragi-CCKR genes were amplified by PCR (Pfu DNA polymerase, Promega) using gene-specific sense primers harbouring a Kozak consensus sequence and antisense primers (Supplementary Table 3). Ten nanogram of plasmid DNA (Pal 17.3 vector, Evrogen) from a C. gigas “all developmental stages and adult central nervous system” directional and normalized cDNA library[62] was used as template. The resulting PCR products were directionally cloned into the pcDNA3.1 expression vector (Invitrogen). The correct insertion of the PCR products was confirmed by sequencing. Human Embryonic Kidney (HEK293T) cells were transiently transfected with the Cragi-CCKR/pcDNA3.1 constructs using Fugene HD (Promega) according to the manufacturer’s instructions. As a first step, co-transfection was done with a pcDNA3.1 expression construct for the human Gα16 subunit, a promiscuous G protein that can direct intracellular signalling of GPCRs to the release of calcium via the phospholipase Cβ pathway, regardless of the endogenous G protein coupling of the receptor[63]. To assess receptor activity independent of Gα16, calcium responses were measured in cells expressing only the Cragi-CCKRs. Cells for negative control experiments were transfected with empty pcDNA3.1 and Gα16/pcDNA3.1 constructs.
(§2) Activation of the Cragi-CCKRs by candidate peptide ligands was monitored using a fluorescence-based calcium mobilization assay. Briefly, transfected HEK293T cells were loaded with Fluo-4 Direct (Invitrogen) plus probenecid (qsp 2.5 mM final in the cell) (Molecular Probes) for 1 hour (45 min at 37 °C and 15 min at room temperature). Excitation of the fluorophore was done at 488 nm. The calcium response was measured for 2 min at 525 nm using a FLEXstation 3 (Molecular Devices) at 37 °C. Data were analysed using SoftMax Pro (Molecular Devices). Candidate ligands were first tested at a final concentration of 10^−5 M. Concentration-response measurements of activating ligands were conducted in quadruplicate and for at least three independent experiments. Half maximal effective concentrations (EC50 values) were calculated from concentration-response curves that were constructed using nonlinear regression analysis with a sigmoidal dose-response equation using Prism 5.0 (GraphPad software, USA).

Assay [2] concerns the target T2, Cragi-CCKR2 (Magallana gigas, UniProt A0A345BJM9).
T2 sequence (A0A345BJM9 1-406): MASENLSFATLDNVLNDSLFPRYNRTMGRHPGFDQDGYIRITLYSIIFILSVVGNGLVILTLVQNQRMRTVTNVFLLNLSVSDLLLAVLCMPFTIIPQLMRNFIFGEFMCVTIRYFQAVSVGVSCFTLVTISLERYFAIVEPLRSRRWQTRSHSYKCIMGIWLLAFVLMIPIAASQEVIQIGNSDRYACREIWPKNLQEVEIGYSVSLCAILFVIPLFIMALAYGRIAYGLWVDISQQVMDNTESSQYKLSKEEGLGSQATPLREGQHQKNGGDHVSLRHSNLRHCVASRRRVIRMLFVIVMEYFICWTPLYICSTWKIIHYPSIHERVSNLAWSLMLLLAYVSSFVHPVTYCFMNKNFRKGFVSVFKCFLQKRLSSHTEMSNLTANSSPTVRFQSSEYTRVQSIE
The assay is described as follows: Calcium fluorescence (mobilization) assay, Cragi-CCKR2 in HEK293T cells. Type of assay: cell-based, Crassostrea gigas. As to conditions: for EC50: HEK293T transiently transfected with Cragi-CCKR2, Fluo-4 calcium response, 37 °C, read-out: EC50 for receptor activation, Cragi-CCKR2.
From the text: as §1, §2

The subject of assay [3] is oyster hindgut. Put plainly: Myotropic bioassay on oyster hindgut. Set-up: species or system Crassostrea gigas. The conditions noted are these: for Duration, Relaxation (R) / Duration, Contraction (C) / Duration, Period (P) / Amplitude (A): mean ± SEM of four experiments, SEM; for Minimal threshold concentration inducing hindgut contraction: isolated oyster hindgut, perfused muscle chamber. The method, then: The myotropic bioassay was performed using oyster's hindgut according to the protocol described earlier for the cuttlefish oviduct. The muscle chamber was perfused at a flow rate of 0.67 mL.min^-1. Increasing concentrations of synthetic peptides (Cragi-CCK1, [[…], [[…], [[…]) were injected in the perfusing flow using a three-way valve to avoid mechanical stress. The flow of the samples into the muscle chamber was traced by adding phenol red.

Where [4] appears, read: concentration-response in quadruplicate, at least three independent experiments.
[5] abbreviates: times more potent than non-sulphated Cragi-CCK1, calcium assay.
Where [6] appears, read: high concentrations, HEK293T, Fig. 4.
[7] abbreviates: folds more potent than [Y^8S] Cragi-CCK1, calcium assay.

Regarding `CC(C)C[C@H](NC(=O)CNC(=O)[C@H](Cc1ccc(OS(=O)(=O)O)cc1)NC(=O)[C@H](CC(=O)O)NC(=O)[C@H](Cc1ccc(O)cc1)NC(=O)[C@H](CC(=O)O)NC(=O)[C@H](Cc1c[nH]c2ccccc12)NC(=O)[C@H](C)NC(=O)CNC(=O)[C@@H]1CCC(=O)N1)C(=O)NCC(=O)NCC(=O)NCC(=O)N[C@@H](CCCNC(=N)N)C(=O)N[C@@H](Cc1ccccc1)C(N)=O` [[Y^8S] Cragi-CCK1] ([pGlu]GAWDYD[sY]GLGGGRF-NH2), the EC50 (as a rule, the concentration giving half of the maximal effect) in assay [1] (setting [4]) was determined as 2.29 ± 1.55 nM; in assay [2] (setting [4]) it was 10 ± 1.9 nM. Moreover, the “Potency relative to non-sulphated counterpart (Cragi-CCK1), Cragi-CCKR1” value in assay [1] (setting [5]) is reported as 90 times. Besides, the “Potency relative to non-sulphated counterpart (Cragi-CCK1), Cragi-CCKR2” value in assay [2] (setting [5]) was 50 times. Besides, the “Duration, Relaxation (R)” value in assay [3] (Peptide 10^−10M, no peptide 11,08 ± 2,27) is reported as 17,62 ± 5,27 min. Moreover, the “Duration, Contraction (C)” value in assay [3] (Peptide 10^−10M, no peptide 18,58 ± 1,03) is 37,13 ± 3,28 min. Further, in assay [3] (Peptide 10^−10M, no peptide 29,66 ± 2,22), the “Duration, Period (P)” value was 54,75 ± 1,97 min. Also, the “Amplitude (A)” value in assay [3] (Peptide 10^−10M, no peptide 0,121 ± 0,025) is given as 0,173 ± 0,023 g. Besides, the “Minimal threshold concentration inducing hindgut contraction” value in assay [3] is reported as 10^−10 M.

Take `CC(C)C[C@H](NC(=O)CNC(=O)[C@H](Cc1ccc(O)cc1)NC(=O)[C@H](CC(=O)O)NC(=O)[C@H](Cc1ccc(OS(=O)(=O)O)cc1)NC(=O)[C@H](CC(=O)O)NC(=O)[C@H](Cc1c[nH]c2ccccc12)NC(=O)[C@H](C)NC(=O)CNC(=O)[C@@H]1CCC(=O)N1)C(=O)NCC(=O)NCC(=O)NCC(=O)N[C@@H](CCCNC(=N)N)C(=O)N[C@@H](Cc1ccccc1)C(N)=O` [[Y^6S] Cragi-CCK1] ([pGlu]GAWD[sY]DYGLGGGRF-NH2): in assay [1] (setting [4]), the EC50 worked out at 16.4 ± 0.1 nM. In addition, in assay [2] (doses as high as 10^−5M, calcium assay in HEK293T), the “Activation of Cragi-CCKR2 (in words)” value was “inactive; also recorded: No activation”. Besides, the “Duration, Relaxation (R)” value in assay [3] (Peptide 10^−5M, no peptide 11,35 ± 0,85) is listed as 11,23 ± 0,60 min. The “Duration, Contraction (C)” value in assay [3] (Peptide 10^−5M, no peptide 20,18 ± 0,98) is recorded as 21 ± 1,42 min. Further, the “Duration, Period (P)” value in assay [3] (Peptide 10^−5M, no peptide 31,53 ± 1,45) is 32,23 ± 1,53 min. In assay [3] (Peptide 10^−5M, no peptide 0,129 ± 0,019), the “Amplitude (A)” value was 0,104 ± 0,021 g. Further, the “Hindgut response (in words)” value in assay [3] (concentration up to 10^−5M) is reported as “No response”.

On to “GALRF-amide [oyster GALRF-amide unrelated neuropeptide used as negative control, reference compound]”, for which, in assay [1] (setting [6]), the “Calcium response of Cragi-CCKR1 to negative control peptide” value is reported as “No response”. Also, the “Calcium response of Cragi-CCKR2 to negative control peptide” value in assay [2] (setting [6]) is given as “No response”.

In the case of `CC(C)C[C@H](NC(=O)CNC(=O)[C@H](Cc1ccc(O)cc1)NC(=O)[C@H](CC(=O)O)NC(=O)[C@H](Cc1ccc(O)cc1)NC(=O)[C@H](CC(=O)O)NC(=O)[C@H](Cc1c[nH]c2ccccc12)NC(=O)[C@H](C)NC(=O)CNC(=O)[C@@H]1CCC(=O)N1)C(=O)NCC(=O)NCC(=O)NCC(=O)N[C@@H](CCCNC(=N)N)C(=O)N[C@@H](Cc1ccccc1)C(N)=O` [Cragi-CCK1] ([pGlu]GAWDYDYGLGGGRF-NH2), the concentration giving a half-maximal response (EC50) in assay [1] (setting [4]) stood at 195 ± 20 nM; in assay [2] (setting [4]), 462 ± 67 nM. For the same compound, the “Duration, Relaxation (R)” value in assay [3] (Peptide 10^−7M, no peptide 10,48 ± 0,78) is reported as 16,03 ± 1,13 min. Besides, in assay [3] (Peptide 10^−7M, no peptide 20,18 ± 0,33), the “Duration, Contraction (C)” value is 35,23 ± 1,32 min. Further, the “Duration, Period (P)” value in assay [3] (Peptide 10^−7M, no peptide 30,67 ± 0,67) is 51,27 ± 0,15 min. In addition, the “Amplitude (A)” value in assay [3] (Peptide 10^−7M, no peptide 0,161 ± 0,038) is reported as 0,203 ± 0,038 g. For the same compound, the “Minimal threshold concentration inducing hindgut contraction” value in assay [3] is listed as 10^−7 M.

Take `N=C(N)NCCC[C@H](NC(=O)CNC(=O)CNC(=O)CNC(=O)[C@H](Cc1ccc(OS(=O)(=O)O)cc1)NC(=O)[C@H](CC(=O)O)NC(=O)[C@@H](N)Cc1ccccc1)C(=O)N[C@@H](Cc1c[nH]c2ccccc12)C(N)=O` [[Y^3S] Cragi-CCK2] (H-FD[sY]GGGRW-NH2): in assay [2] (values given in M), the EC50 was > 100000 nM.

Take FMRF-amide [reference compound]: the “Hindgut effect (in words)” value in assay [3] (concentration of 10^−7M) is on record as “No effect”.

Consider `CC(C)C[C@H](NC(=O)CNC(=O)[C@H](Cc1ccc(OS(=O)(=O)O)cc1)NC(=O)[C@H](CC(=O)O)NC(=O)[C@H](Cc1ccc(OS(=O)(=O)O)cc1)NC(=O)[C@H](CC(=O)O)NC(=O)[C@H](Cc1c[nH]c2ccccc12)NC(=O)[C@H](C)NC(=O)CNC(=O)[C@@H]1CCC(=O)N1)C(=O)NCC(=O)NCC(=O)NCC(=O)N[C@@H](CCCNC(=N)N)C(=O)N[C@@H](Cc1ccccc1)C(N)=O` [[Y^6S-Y^8S] Cragi-CCK1] ([pGlu]GAWD[sY]D[sY]GLGGGRF-NH2), for which the EC50 in assay [1] (setting [4]) was determined as 1.1 ± 0.25 nM; in assay [2] (setting [4]), 1.98 ± 0.25 nM. Further, the “Potency relative to mono-sulphated [Y^8S] Cragi-CCK1, Cragi-CCKR1” value in assay [1] (setting [7]) is given as 2 folds. Also, the “Potency relative to mono-sulphated [Y^8S] Cragi-CCK1, Cragi-CCKR2” value in assay [2] (setting [7]) amounted to 5 folds. The “Duration, Relaxation (R)” value in assay [3] (Peptide 10^−9M, no peptide 11,80 ± 1,63) is given as 23,82 ± 1,35 min. Further, the “Duration, Contraction (C)” value in assay [3] (Peptide 10^−9M, no peptide 18,76 ± 1,07) is 38,57 ± 3,53 min. For the same compound, the “Duration, Period (P)” value in assay [3] (Peptide 10^−9M, no peptide 30,57 ± 2,22) is listed as 62,39 ± 2,50 min. Further, in assay [3] (Peptide 10^−9M, no peptide 0,103 ± 0,006), the “Amplitude (A)” value was 0,153 ± 0,016 g. Moreover, the “Minimal threshold concentration inducing hindgut contraction” value in assay [3] was 10^−9 M.

Turning to FDYGGGRW-NH2 [Cragi-CCK2], the EC50 in assay [1] (values given in M) and in assay [2] (values given in M) was > 100000 nM throughout.

The values above are taken from PMC6219549, “Emergence of a cholecystokinin/sulfakinin signalling system in Lophotrochozoa” (Scientific Reports, 2018).
